Several values for one entry are separate records, joined by “and”; a condition that tells them apart may be missing. Equal entries are not always repeated.
Columns and labels:
Assay type in all cases: in vivo
[1] = test system: Corn Earworm (Helicoverpa zea, HELIZE, CEW); assay: Bioassay 4: corn earworm, artificial diet, 128-cell tray; details: AI alone
Outline: (§1)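 Test solutions (0.0000004–0.04% w/v, i.e. 0.00005–5 μg/cm² on diet) were pipetted onto artificial lepidopteran diet and one 2nd-instar larva was placed per cell, 8 replicates per species, held at ~26° C. Live larvae were counted after 5 days; percent control used Abbott's correction against a solvent check.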

[2] = test system: Soybean Looper (Chrysodeixis includens, PSEPIN, SBL); assay: Bioassay 4: soybean looper, artificial diet, 128-cell tray; details: AI alone
Outline: as §1

[3] = test system: Brown Planthopper (Nilaparvata lugens, NILALU, BPH); assay: Bioassay 6: brown planthopper, sprayed rice seedlings; details: AI alone, AI Rate 0.049 g/ha, 6 days
Description: At these rates, F1 and the individual active ingredients were tested at a ratio of 1:1. […] F1 and triflumezopyrim were tested at a ratio of 16:1. Test solutions were prepared containing F1, the individual active ingredients, and mixtures of F1 with each of the active ingredients. Test solutions were prepared by weighing 5 mg of each test chemistry (either alone or in combination depending on the treatment) into a 25 mL glass vial. Next, 1 mL of acetone was added to each vial to dissolve the test chemistries, followed by 19 mL of water with 0.125% Tween 20 adjuvant. This test solution represented the 50 g/ha treatment, which was then serially diluted four-fold to create the three lower rates of 12.5, 3.125, and 0.78 g/ha. Triflumezopyrim was prepared in a similar manner, but two additional serial dilutions were conducted to create solutions representing 6 rates of 12.5, 3.125, 0.78, 0.19, 0.049, and 0.012 g/ha. The higher two doses were discarded, and the four lower doses were used for testing. Each rate was replicated four times, and solvent blanks were used as control treatments.
Five (5) rice seedlings (10-12 days old) planted in 3-inch pots were used as test plants. Rice seedlings were grown in soil and the soil was covered with a 2% agar solution. The test solutions were applied to test plants using a Devries laboratory research sprayer, set to spray at 200 liters per hectare (L/ha) using a TeeJet hollow cone nozzle. Following application, the rice seedlings were dried for 1 hour, after which a single clear plastic tube (2 inches in diameter×12 inches in height) was placed over the seedlings in each pot. The tube was pushed down into the agar to create a sealed test chamber. The agar prevented insects from hiding in the soil and made adult collection and grading easier. Ten to fifteen (10-15) 5th instar BPH nymphs were transferred to each test chamber using a vacuum aspirator. Immediately following BPH infestation, the test chamber was covered with a piece of grade 90 cheesecloth and secured with a rubber band, sealing the test chamber. The test chambers were held at 25° C. for 6 days, after which the total number of live insects was counted in each test chamber. Percent control was measured using Abbott's correction formula (W. S. Abbott, J. Econ. Entomol. 18 (1925), pp. 265-267) as follows:
where X=No. of live insects on solvent check and Y=No. of live insects in treated chambers. In Table B6 the “Expected % Control” was calculated using the method described in Colby S. R., Weeds, 1967, 15, 20-22. Bioassay 7: Corn Earworm (Helicoverpa zea, HELIZE, “CEW”), Fall Armyworm (Spodoptera frugiperda, LAPHFR, “FAW”), Beet Armyworm (Spodoptera exigua, LAPHEG, “BAW”),and Soybean Looper (Chrysodeixis includens, PSEPIN, “SBL”).

[4] = test system: Sweet Potato Whitefly (Bemisia tabaci, BEMITA, SPW); assay: Bioassay 2: sweet potato whitefly, cotton seedling foliar spray; details: AI alone
Description: Stock solutions were prepared with F1 as well as for each of the active ingredients individually. Test solutions were prepared from the stock solutions. Test solutions were prepared containing F1, the individual active ingredients, and mixtures of F1 with each of the active ingredients. The test solutions for F1 and the individual active ingredients were prepared by adding 500 μL of stock solution to a 25 mL glass vial, then adding 500 μL of acetone, followed by the addition of 9 mL water with 0.025% Tween® 20 to create a 0.001% (w/v) solution. The test solutions containing mixtures of F1, and the individual active ingredients were prepared by adding 500 μL of the active ingredient stock solution to a 25 mL glass vial, followed by 500 μL of the F1 stock solution, then by the addition of 9 mL water with 0.025% Tween® 20 to create a test solution containing 0.001% (w/v) F1 and 0.001% (w/v) of the active ingredient. Each test solution was serially diluted to create desired doses of test solutions (0.001% (w/v), 0.0001% (w/v), 0.00001% (w/v), 0.000001% (w/v), 0.0000001% (w/v), and 0.00000001% (w/v)).
The test solutions were tested against SPW using the following procedure: Cotton seedlings grown in 3-inch pots, pruned so that only one true leaf remained, were used as test substrate. Adult B. tabaci were allowed to colonize the cotton plants and lay eggs for 24 hours after which all adults were removed from the plants using compressed air. Plants were monitored for egg development, and when crawler emergence was underway (>25% emergence based on visual examination using a microscope), the plants were sprayed using the test solutions and methods described above for green peach aphids (GPA). Treated plants were held in a holding room at approximately 25° C. and ambient relative humidity (RH) prior to grading. Evaluation was conducted by counting the number of developed 2-3 instar nymphs per plant under a microscope 7-9 days after treatment. Percent control was measured using Abbott's correction formula (W. S. Abbott, J. Econ. Entomol. 18 (1925), pp. 265-267) as follows:
where X=No. of live nymphs on solvent check plants and Y=No. of live nymphs on treated plants. In Table B2 the “Expected % Control” was calculated using the method described in Colby S. R., Weeds, 1967, 15, 20-22. Bioassay 3: Western Flower Thrips (Frankliniella occidentalis, FRANOC, “WFT”).

[5] = test system: Fall Armyworm (Spodoptera frugiperda, LAPHFR, FAW); assay: Bioassay 4: fall armyworm, artificial diet, 128-cell tray; details: AI alone
Outline: as §1

Row | Structure (SMILES) | Average % Control AI ([1]; 0.000004 wt %) [%] | Average % Control AI ([1]; 0.00004 wt %) [%] | Average % Control AI ([2]; 0.000004 wt %) [%] | Average % Control AI ([2]; 0.00004 wt %) [%] | Average % Control AI [3] | Average % Control AI ([4]; Wt % AI 0.0001, 7-9 days) [%] | Average % Control AI ([5]; 0.000004 wt %) [%] | Average % Control AI ([5]; 0.00004 wt %) [%] | Average % Control AI ([4]; Wt % AI 0.00001, 7-9 days) [%]
1 | N#CCNC(=O)c1cnccc1C(F)(F)F [Flonicamid] | 0.0 | 0.0 | 0.0 | 0.0 | 5.4% and 1.1% | 0.0 | 0.0 | 0.0 | –
2 | O=C1C=C(N(Cc2ccc(Cl)nc2)CC(F)F)CO1 [Flupyradifurone] | 0.0 | 0.0 | 0.0 | 0.0 | 16.3% and 7.6% | 39.2 | 0.0 | 0.0 | 22.9
